How the values were obtained:
miR-122 = assay: Expression of RORα-regulated microRNA in Huh-7 cells (qRT-PCR); type: cell-based, human; conditions: 1 μM, 24 hours
Experimental: Secreted microRNA levels in the medium of Huh-7 cells were analyzed by qRT-PCR and were normalized to spiked C. elegans miR-39. miR-18 and miR-93 served as controls for secreted microRNA and were not affected following Compound 1 addition.
RNA extraction and quantitative Real-Time PCR analysis. Total RNA, including small RNAs, were isolated from 200 μL of plasma or culture media samples using the miRNeasy Mini kit (Qiagen, Valencia, CA, USA) with 2 minor modifications. First, 200 μl of plasma or culture media were lysed with 1 ml of Qiazol solution. Second, a 50 pmol/l of synthesized single strand Caenorhabditis elegans miRNA (cel-miR-39) was added as the spike-in control to monitor extraction efficiency. The remainder of the RNA extraction was performed according to the manufacturer's instructions. miRNAs were eluted with 30 μl of RNase-free water. […] The fold expression and statistical significance were calculated using the 2-ΔΔ Ct method. […]

HuH7 cell = assay: LDH release from HuH7 cells; type: cell-based, human; conditions: HuH7, 16 h exposure, data not shown
[1] = system: C57BL/6 mice fed with HFD; assay: Multi-parameter metabolic assessment (metabolic cages) in HFD-fed C57BL/6 mice; type: in vivo; conditions: 15 mg/kg 3 times a week, after 2 weeks, 24 hr period, vs saline
Experimental: Metabolic and activity profiles of the mice were measured, by using the Promethion High-Definition Behavioral Phenotyping System (Sable Instruments, Inc., Las Vegas, NV, USA), which is a multi-parameter assessment incorporating sub-systems for open-circuit indirect calorimetry, feeding, water intake, activity, running wheel and body mass measurements in a conventional live-in home cage that minimizes stress. Data acquisition and instrument control were performed using the MetaScreen software version 2.2.18.0, and the obtained raw data were processed using ExpeData version 1.8.4 using an analysis script detailing all aspects of data transformation. […] Respiratory gases were measured by using the GA-3 gas analyzer (Sable Systems Inc., Las Vegas, NV, USA) using a pull-mode, negative-pressure system. Air flow was measured and controlled by the FR-8 (Sable Systems Inc., Las Vegas, NV, USA), with a set flow rate of 2000 mL/min. Water vapor was continuously measured and its dilution effect on 02 and CO2 were mathematically compensated. Effective mass was calculated by ANCOVA analysis. Respiratory quotient (RQ) was calculated as the ratio of VCO2/VO2. Total energy expenditure (TEE) was calculated as VO2×(3.815+1.232×RQ), normalized to effective body mass, and expressed as kcal/h/kgeff.Mass. […]

miR-122 and Gpase6 = assay: Modulation of RORα-regulated genes in healthy C57BL/6 mice; type: in vivo; conditions: 7.5 mg/kg i.p. once
Experimental: Healthy C57BL/6 mice were injected i.p. once with 7.5 mg/kg Compound 1 or saline control. Mice were sacrificed at 1, 2, and 7 day time points post-injection. miR-122 and Gpase 6 mRNA levels were determined by qRT-PCR for each time point. MicroRNA levels were normalized to RNU6; plasma miR-122 was normalized to spiked in C. elegans miR-39; and mRNA levels were normalized to HPRT.
RNA extraction and quantitative Real-Time PCR analysis. Total RNA, including small RNAs, were isolated from 200 μL of plasma or culture media samples using the miRNeasy Mini kit (Qiagen, Valencia, CA, USA) with 2 minor modifications. First, 200 μl of plasma or culture media were lysed with 1 ml of Qiazol solution. Second, a 50 pmol/l of synthesized single strand Caenorhabditis elegans miRNA (cel-miR-39) was added as the spike-in control to monitor extraction efficiency. The remainder of the RNA extraction was performed according to the manufacturer's instructions. miRNAs were eluted with 30 μl of RNase-free water. Total RNA, including miRNAs, from cells or tissues were isolated using TRIzol reagent (Invitrogen, Carlsbad, CA, USA). cDNA was synthesized using the Quanta Biosciences qScript™ cDNA Synthesis Kit (95047-100) for mRNA analysis, and using the qScript™ microRNA cDNA Synthesis Kit (95107-100) for miRNAs analysis. qRT-PCR of miRNAs and mRNA was performed using the ABI 7900 HT Real-Time PCR System and a SYBR Green PCR Kit: Quanta Cat. #84018 and #84071 respectively. The fold expression and statistical significance were calculated using the 2-ΔΔ Ct method. All experiments were performed in triplicates.

O=C1Nc2cc(C(=O)N3CCC(Cc4ccccc4)CC3)ccc2Nc2ccccc21 [Compound 1]
secreted miR-18 and miR-93 levels in medium (control microRNAs) (miR-122): not affected | secretion of miR-122 (relative microRNA levels in Huh7 medium) (miR-122; vs DMSO): specifically increases | toxicity to the cells as measured by LDH release (HuH7 cell): no apparent toxicity | fat oxidation [1]: increased | total energy expenditure (TEE) [1]: increased | miR-18 and miR-126 levels (controls) (miR-122 and Gpase6; over 7 days): not affected | Gpase6 mRNA (RORα-regulated gene) (miR-122 and Gpase6; up to 7 days post-injection): significantly up-regulated | miR-122 levels in plasma and liver (miR-122 and Gpase6; up to 7 days post-injection): increased

From patent US12318393B2, “Modulators of orphan nuclear receptors for NASH and other metabolic disorders” (Emory University, priority 2018, dated 2025)
